IC50 and viability, T/C data for five molecules are collected here from PubChem BioAssay AID1963870 (Molecular Pharmacology Branch, DTP, NCI, 2024).

For the assay, the system named is 292921-168-R-J2-PDC KRAS tumor spheroid viability. Nature of the assay: Anticancer human tumor 292921-168-R-J2-PDC patient-derived pancreatic carcinoma cell line growth inhibition [KRAS2]. To be noted: spheroids with HUVEC and MSC; for viability, T/C: stronger effect = lower value. In a few lines: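 Combination screen of spheroid viability in tumor-cell co-cultures with endothelial (HUVEC) and mesenchymal stem cell stroma. Each agent was tested in half-log dilutions, topping at clinical Cmax or at 10 microM without a known Cmax.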

The mark [1] stands for this setting: curve of first compound, second compound 0.1 µM.
Setting [2] is: curve of first compound, second compound 0.316 µM.
[3] abbreviates: curve of first compound, second compound 1 µM.
The mark [4] stands for this setting: curve of first compound, second compound 3.16 µM.
The mark [5] stands for this setting: curve of first compound, second compound 10 µM.
Setting [6] is: second compound 0.1 µM, first compound 0.0316 µM.
Where [7] appears, read: second compound 0.1 µM, first compound 0.1 µM.
[8] abbreviates: second compound 0.1 µM, first compound 0.316 µM.
Where [9] appears, read: second compound 0.1 µM, first compound 1 µM.
The mark [10] stands for this setting: second compound 0.1 µM, first compound 3.16 µM.
Where [11] appears, read: second compound 0.1 µM, first compound 10 µM.
Setting [12] is: second compound 0.316 µM, first compound 0.0316 µM.
Setting [13] is: second compound 0.316 µM, first compound 0.1 µM.
Where [14] appears, read: second compound 0.316 µM, first compound 0.316 µM.
[15] abbreviates: second compound 0.316 µM, first compound 1 µM.
Where [16] appears, read: second compound 0.316 µM, first compound 3.16 µM.
Where [17] appears, read: second compound 0.316 µM, first compound 10 µM.
Where [18] appears, read: second compound 1 µM, first compound 0.0316 µM.
The mark [19] stands for this setting: second compound 1 µM, first compound 0.1 µM.
The mark [20] stands for this setting: second compound 1 µM, first compound 0.316 µM.
[21] abbreviates: second compound 1 µM, first compound 1 µM.
The mark [22] stands for this setting: second compound 1 µM, first compound 3.16 µM.
[23] abbreviates: second compound 1 µM, first compound 10 µM.
Where [24] appears, read: second compound 3.16 µM, first compound 0.0316 µM.
Setting [25] is: second compound 3.16 µM, first compound 0.1 µM.
Setting [26] is: second compound 3.16 µM, first compound 0.316 µM.
The mark [27] stands for this setting: second compound 3.16 µM, first compound 1 µM.
The mark [28] stands for this setting: second compound 3.16 µM, first compound 3.16 µM.
Setting [29] is: second compound 3.16 µM, first compound 10 µM.
The mark [30] stands for this setting: second compound 10 µM, first compound 0.0316 µM.
Where [31] appears, read: second compound 10 µM, first compound 0.1 µM.
[32] abbreviates: second compound 10 µM, first compound 0.316 µM.
Where [33] appears, read: second compound 10 µM, first compound 1 µM.
Setting [34] is: second compound 10 µM, first compound 3.16 µM.
The mark [35] stands for this setting: second compound 10 µM, first compound 10 µM.

By IC50 is commonly meant the concentration at which inhibition is half-maximal. As a reminder, the viability, T/C is the result in the treated group divided by that in the control group, in per cent.
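Further: drug exposure lasted seven days after spheroids formed for three days.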
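Wherever viability, T/C is given: percent of DMSO vehicle control viability which is 100%.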

`Cn1nccc1Nc1nccc(-c2cc3c(s2)C(C)(C)N(CCN2CCOCC2)C3=O)n1` + COc1cc2nc(C)nc(NC(C)c3cc(N)cc(C(F)(F)F)c3)c2cc1OC1CCOC1: the IC50 was 64.7 nM under setting [1]; 54.7 nM under setting [2]; 47.2 nM under setting [3]; 32.6 nM under setting [4]; below 31.6 nM under setting [5]. Further, the viability, T/C under setting [6] was 74.8%; the viability, T/C under setting [7] was 34.9%; the viability, T/C under setting [8] is 14.8%; the viability, T/C under setting [9] is 11.1%; the viability, T/C under setting [10] is 9.76%; the viability, T/C under setting [11] is 9.52%. In addition, the viability, T/C is 66.2% under setting [12]; 32.1% under setting [13]; 16.4% under setting [14]; 10.4% under setting [15]; 8.74% under setting [16]; 9.26% under setting [17]. Besides, the viability, T/C under setting [18] is 60.1%; the viability, T/C under setting [19] was 31.6%; the viability, T/C under setting [20] is 15.8%; the viability, T/C under setting [21] was 10.9%; the viability, T/C under setting [22] was 9.75%; the viability, T/C under setting [23] is 10.1%. In addition, the viability, T/C is, setting by setting: under setting [24], 50.7%; under setting [25], 26.1%; under setting [26], 14.3%; under setting [27], 10.2%; under setting [28], 8.41%; under setting [29], 10.2%. For the same molecule, the viability, T/C is 25.4% under setting [30]; 15.9% under setting [31]; 10.3% under setting [32]; 9.05% under setting [33]; 9.73% under setting [34]; 7.56% under setting [35].
Consider `CN(C)C/C=C/C(=O)Nc1cc2c(Nc3ccc(F)c(Cl)c3)ncnc2cc1O[C@H]1CCOC1`, for which the viability, T/C by setting is: (compound 0.000316 µM) 101% [middle of 5 runs]; (compound 0.001 µM) 101% [middle of 5 runs]; (compound 0.00316 µM) 85.6% [middle of 5 runs]; (compound 0.01 µM) 82.7% [middle of 5 runs]; (compound 0.0316 µM) 75.9% [middle of 5 runs]; (compound 0.1 µM) 70.9% [middle of 5 runs]. The half-inhibitory concentration (IC50) (curve of compound) was above 100 nM.
For the molecule `CC1COCCN1c1cc(-c2ccnn2C)c2ccnc(-c3ccn[nH]3)c2n1` (centres undefined), the viability, T/C (compound 0.01 µM) was 48% [middle of 5 runs]; the viability, T/C (compound 0.0316 µM) was 23.6% [middle of 5 runs]; the viability, T/C (compound 0.1 µM) was 16.1% [middle of 5 runs]; the viability, T/C (compound 0.316 µM) is 14.2% [middle of 5 runs]; the viability, T/C (compound 1 µM) is 14.4% [middle of 5 runs]; the viability, T/C (compound 3.16 µM) is 16% [middle of 5 runs]. For the same molecule, where the note is “curve of compound”, the IC50 is below 10 nM.
For `O=C(c1cc(Cc2n[nH]c(=O)c3ccccc23)ccc1F)N1CCN(C(=O)C2CC2)CC1` + CNCc1ccccc1-c1csc(C(C)Nc2nc(C)nc3cc(OC)c(OC)cc23)c1, the IC50 by setting is: under setting [1], 6100 nM; under setting [2], 5510 nM; under setting [3], 4920 nM; under setting [4], below 31.6 nM; under setting [5], below 31.6 nM. Moreover, the viability, T/C is 98% under setting [6]; 109% under setting [7]; 99.2% under setting [8]; 87.6% under setting [9]; 61.2% under setting [10]; 41.6% under setting [11]. Besides, the viability, T/C reads like this: under setting [12], 88.7%; under setting [13], 79%; under setting [14], 76.8%; under setting [15], 74%; under setting [16], 62.3%; under setting [17], 37.6%. For the same molecule, the viability, T/C is 83.5% under setting [18]; 68.3% under setting [19]; 69.9% under setting [20]; 70.1% under setting [21]; 52.3% under setting [22]; 42.4% under setting [23]. For the same molecule, the viability, T/C under setting [24] was 0.14%; the viability, T/C under setting [25] is 0.13%; the viability, T/C under setting [26] is 0.11%; the viability, T/C under setting [27] is 0.1%; the viability, T/C under setting [28] was 0.1%; the viability, T/C under setting [29] is 0.17%. Moreover, the viability, T/C reads like this: under setting [30], 0.33%; under setting [31], 0.1%; under setting [32], 0.1%; under setting [33], 0.11%; under setting [34], 0.11%; under setting [35], 0.19%.
`CC1(C)CCC(CN2CCN(c3ccc(C(=O)NS(=O)(=O)c4ccc(NCC5CCOCC5)c([N+](=O)[O-])c4)c(Oc4cnc5[nH]ccc5c4)c3)CC2)=C(c2ccc(Cl)cc2)C1` + CC1OCC2(CCN(c3cnc(Sc4ccnc(N)c4Cl)c(N)n3)CC2)C1N: the IC50 under setting [1] was 1610 nM; the IC50 under setting [2] was determined as 1430 nM; the IC50 under setting [3] is below 31.6 nM; the IC50 under setting [4] is below 31.6 nM; the IC50 under setting [5] is below 31.6 nM. Besides, the viability, T/C under setting [6] is 77.7%; the viability, T/C under setting [7] was 81.6%; the viability, T/C under setting [8] is 71.8%; the viability, T/C under setting [9] was 69.8%; the viability, T/C under setting [10] is 21.9%; the viability, T/C under setting [11] is 11.7%. For the same molecule, the viability, T/C by setting is: under setting [12], 59.7%; under setting [13], 65.9%; under setting [14], 64.2%; under setting [15], 58.9%; under setting [16], 29.6%; under setting [17], 7.43%. Moreover, the viability, T/C runs as follows: under setting [18], 46.5%; under setting [19], 51.4%; under setting [20], 46.1%; under setting [21], 42.9%; under setting [22], 17.8%; under setting [23], 7.41%. In addition, the viability, T/C was 38.8% under setting [24]; 40.2% under setting [25]; 37.6% under setting [26]; 39% under setting [27]; 14.1% under setting [28]; 7.38% under setting [29]. The viability, T/C runs as follows: under setting [30], 33.3%; under setting [31], 32.8%; under setting [32], 33.2%; under setting [33], 34.7%; under setting [34], 13.1%; under setting [35], 1.65%.
